In patent US7998978B2 (Pfizer Inc., priority 2006, dated 2011):

Target: T1, JNK1α1 (Homo sapiens, UniProt P45983)
T1 construct: catalytic domain containing amino acids 1-364 and N-terminal hexahistidine tag; hexahistidine (His6) (N); made in house; host or cells: E. coli BL21 (DE3)
Experiment: Coupled spectrophotometric (PK/LDH) JNK1α1 assay: % inhibition and Ki determination
Type: biochemical
Settings: JNK-1
Procedure: % Inhibition and Ki Determination
A coupled spectrophotometric assay, coupling JNK1α1 activity to the oxidation of β-NADH to NAD+ through the action of pyruvate kinase (PK) and lactic dehydrogenase (LDH), was used to determine the potency (percent inhibition at 1 or 10 μM or Ki) of compounds against JNK1α1 (Genbank Accession Number: L26318). […] The reaction was monitored by following the decrease in absorbance at 340 nm. The initial reaction rate was determined by the slope of the change in absorbance. To calculate percent inhibition the rate of the reaction in the presence of 1 or 10 μM compound was compared to the rate of the reaction with only DMSO multiplied by 100 percent. Note, the background rate of the above reaction in the presence of 10 μM PHA-00738186 was subtracted from all rates. […] Y=(−X+Eo−(Ki*(1+A/Km))+((X−Eo+(Ki*(1+A/Km)))^2+4*Eo*(Ki*(1+A/Km)))^0.5)*(Vm*A/(Km+A)/(2*Eo)) Formula: • Parameters: Eo, Ki, A, Km, Vo • Y is initial reaction velocity; • X is inhibitor concentration; • A is [ATP]; • Ki is inhibition constant; • Vm is Vmax; • Eo is total (initial) enzyme concentration; • Km is ATP Km;
The compounds were prepared in 100% DMSO at a 40× concentration. For percent inhibition experiments this would be 400 or 40 μM for 10 and 1 μM final concentration, respectively. For the Ki determination 3× serial dilutions were made starting at 4 mM (100 μM at 1×) in DMSO. A total of 11 concentrations were used for the analysis. The compounds were added to the reaction plate first. Next, a solution containing the HEPES, MgCl2, DTT, peptide substrate, NADH, PEP, PK/LDH enzyme, and JNK1α1—364nHis enzyme was added to the assay plate. The plate was incubated at room temperature for 15 minutes. Then the plate was warmed to 30° C. for 5 minutes. The reaction was initiated with the addition of ATP. The reaction was run in a plate reader at 30° C. for 20 minutes with absorbance readings made about every 10 seconds.
The column with “#” heading refers to compound number as exemplified in the Examples section. The column with “Ki” heading refers to Ki (in nM). The column with “% Inhibition” heading refers to percent inhibition of JNK-1 at 1 μM or 10 μM (in %) unless otherwise stated. ND refers to no data was taken.

T1 sequence (P45983 1-364): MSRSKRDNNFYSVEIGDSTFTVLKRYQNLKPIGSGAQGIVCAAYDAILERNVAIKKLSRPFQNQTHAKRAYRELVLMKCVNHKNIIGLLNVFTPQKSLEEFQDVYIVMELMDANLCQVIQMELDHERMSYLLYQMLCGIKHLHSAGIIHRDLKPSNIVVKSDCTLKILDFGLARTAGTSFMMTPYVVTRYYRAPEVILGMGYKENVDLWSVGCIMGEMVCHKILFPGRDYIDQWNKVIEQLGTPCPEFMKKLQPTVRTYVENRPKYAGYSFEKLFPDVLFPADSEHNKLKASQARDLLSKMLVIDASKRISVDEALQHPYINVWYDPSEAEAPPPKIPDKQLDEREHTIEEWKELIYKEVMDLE

SMILES	Ki [nM]
O=C(CCc1cncnc1)Nc1cc2cc(-c3cn[nH]c3)ccc2cn1 [Example 29, N-[6-(1H-pyrazol-4-yl)isoquinolin-3-yl]-3-pyrimidin-5-ylpropanamide]	22
O=C(Cn1cc(-c2ccccn2)nn1)Nc1cc2cc(-c3cn[nH]c3)ccc2cn1 [Example 30, N-[6-(1H-pyrazol-4-yl)isoquinolin-3-yl]-2-(4-pyridin-2-yl-1H-1,2,3-triazol-1-yl)acetamide]	18
CC(C)(C)OC(=O)NC(CC(=O)Nc1cc2cc(-c3cn[nH]c3)ccc2cn1)c1c(F)cccc1F (centres unmarked) [Example 31, tert-butyl (1-(2,6-difluorophenyl)-3-oxo-3-{[6-(1H-pyrazol-4-yl)isoquinolin-3-yl]amino}propyl)carbamate]	3
O=C(COc1cccc(-c2cnccn2)c1)Nc1cc2cc(-c3cn[nH]c3)ccc2cn1 [Example 32, 2-(3-pyrazin-2-ylphenoxy)-N-[6-(1H-pyrazol-4-yl)isoquinolin-3-yl]acetamide]	8
O=C(Cc1c(F)cccc1C(F)(F)F)Nc1cc2cc(-c3cn[nH]c3)ccc2cn1 [Example 33, N-[6-(1H-pyrazol-4-yl)isoquinolin-3-yl]-2-[2-(trifluoromethyl-6-fluoro)phenyl]acetamide]	7
O=C(CN1N=C(c2ccccc2)CCC1=O)Nc1cc2cc(-c3cn[nH]c3)ccc2cn1 [Example 34, 2-(6-oxo-3-phenyl-5,6-dihydropyridazin-1(4H)-yl)-N-[6-(1H-pyrazol-4-yl)isoquinolin-3-yl]acetamide]	17
O=C(CNC(=O)C1(c2ccccc2)CC1)Nc1cc2cc(-c3cn[nH]c3)ccc2cn1 [Example 35, N-(2-oxo-2-{[6-(1H-pyrazol-4-yl)isoquinolin-3-yl]amino)ethyl)-1-phenylcyclopropanecarboxamide]	8
CC(C)(C)OC(=O)N1C[C@H](C(=O)Nc2cc3cc(-c4cn[nH]c4)ccc3cn2)[C@@H](c2ccccc2)C1 [Example 36]	8
O=C(Cn1nc(C(F)(F)F)c2c1CCCC2)Nc1cc2cc(-c3cn[nH]c3)ccc2cn1 [Example 37, N-[6-(1H-pyrazol-4-yl)isoquinolin-3-yl]-2-[3-(trifluoromethyl)-4,5,6,7-tetrahydro-1H-indazol-1-yl]acetamide]	2
O=C(Nc1cc2cc(-c3cn[nH]c3)ccc2cn1)C1COc2ccccc2C1 (centres unmarked) [Example 38, N-[6-(1H-pyrazol-4-yl)isoquinolin-3-yl]chromane-3-carboxamide]	14
O=C(CCc1ccc(C(F)(F)F)cc1)Nc1cc2cc(-c3cn[nH]c3)ccc2cn1 [Example 39, N-[6-(1H-pyrazol-4-yl)isoquinolin-3-yl]-3-[4-(trifluoromethyl)phenyl]propanamide]	7
CN(C)C(=O)CCC(=O)Nc1cc2cc(-c3cn[nH]c3)ccc2cn1 [Example 40, N,N-dimethyl-N′-[6-(1H-pyrazol-4-yl)isoquinolin-3-yl]succinamide]	8
COc1ccc(CCCC(=O)Nc2cc3cc(-c4cn[nH]c4)ccc3cn2)cc1 [Example 41, 4-(4-methoxyphenyl)-N-[6-(1H-pyrazol-4-yl)isoquinolin-3-yl]butanamide]	14
O=C(CCc1cccc(C(F)(F)F)c1)Nc1cc2cc(-c3cn[nH]c3)ccc2cn1 [Example 42, N-[6-(1H-pyrazol-4-yl)isoquinolin-3-yl]-3-[3-(trifluoromethyl)phenyl]propanamide]	5
Cc1cnc(C(=O)NCC(=O)Nc2cc3cc(-c4cn[nH]c4)ccc3cn2)cn1 [Example 43, 5-methyl-N-(2-oxo-2-{[6-(1H-pyrazol-4-yl)isoquinolin-3-yl]amino}ethyl)pyrazine-2-carboxamide]	8
O=C(CCc1ccc(F)cc1)Nc1cc2cc(-c3cn[nH]c3)ccc2cn1 [Example 44, 3-(4-fluorophenyl)-N-[6-(1H-pyrazol-4-yl)isoquinolin-3-yl]propanamide]	11
O=C(Cc1ccc(C(F)(F)F)cc1)Nc1cc2cc(-c3cn[nH]c3)ccc2cn1 [Example 45, N-[6-(1H-pyrazol-4-yl)isoquinolin-3-yl]-2-[4-(trifluoromethyl)phenyl]acetamide]	21
Cc1sc(-c2ccccc2)nc1CC(=O)Nc1cc2cc(-c3cn[nH]c3)ccc2cn1 [Example 46, 2-(5-methyl-2-phenyl-1,3-thiazol-4-yl)-N-[6-(1H-pyrazol-4-yl)isoquinolin-3-yl]acetamide]	5

SMILES	Ki [nM]
COc1ccc2c(c1)CCC2C(=O)Nc1cc2cc(-c3cn[nH]c3)ccc2cn1 (centres unmarked) [Example 47, 5-methoxy-N-[6-(1H-pyrazol-4-yl)isoquinolin-3-yl]indane-1-carboxamide]	> 50
O=C(Cn1cnnn1)Nc1cc2cc(-c3cn[nH]c3)ccc2cn1 [Example 48, N-[6-(1H-pyrazol-4-yl)isoquinolin-3-yl]-2-(1H-tetrazol-1-yl)acetamide]	15
O=C(COCc1ccccc1)Nc1cc2cc(-c3cn[nH]c3)ccc2cn1 [Example 49, 2-(benzyloxy)-N-[6-(1H-pyrazol-4-yl)isoquinolin-3-yl]acetamide]	3
CC(C)c1ccc(OCC(=O)Nc2cc3cc(-c4cn[nH]c4)ccc3cn2)cc1 [Example 50, 2-(4-isopropylphenoxy)-N-[6-(1H-pyrazol-4-yl)isoquinolin-3-yl]acetamide]	3
Cc1oc(-c2ccccc2)nc1CC(=O)Nc1cc2cc(-c3cn[nH]c3)ccc2cn1 [Example 51, 2-(5-methyl-2-phenyl-1,3-oxazal-4-yl)-N-[6-(1H-pyrazol-4-yl)isoquinolin-3-yl]acetamide]	8
Cn1c(=O)c2c(ncn2CC(=O)Nc2cc3cc(-c4cn[nH]c4)ccc3cn2)n(C)c1=O [Example 52, 2-(1,3-dimethyl-2,6-dioxo-1,2,3,6-tetrahydro-7H-purin-7-yl)-N-[6-(1H-pyrazol-4-yl)isoquinolin-3-yl]acetamide]	15
COc1ccccc1CC(=O)Nc1cc2cc(-c3cn[nH]c3)ccc2cn1 [Example 53, 2-(2-methoxyphenyl)-N-[6-(1H-pyrazol-4-yl)isoquinolin-3-yl]acetamide]	21
O=C(Nc1cc2cc(-c3cn[nH]c3)ccc2cn1)[C@H]1C[C@@H]1c1ccccc1 [Example 54, (1S,2S)-2-phenyl-N-[6-(1H-pyrazol-4-yl)isoquinolin-3-yl]cyclopropanecarboxamide]	8
O=C(CC(c1ccccc1)c1ccccc1)Nc1cc2cc(-c3cn[nH]c3)ccc2cn1 [Example 55, 3,3-diphenyl-N-[6-(1H-pyrazol-4-yl)isoquinolin-3-yl]propanamide]	5
O=C(CNC(=O)c1ccc(O)c(Cl)c1)Nc1cc2cc(-c3cn[nH]c3)ccc2cn1 [Example 56, 3-chloro-4-hydroxy-N-(2-oxo-2-{[6-(1H-pyrazol-4-yl)isoquinolin-3-yl]amino}ethyl)benzamide]	17
CC(C)[C@@H]1CC[C@@H](C)C[C@H]1OCC(=O)Nc1cc2cc(-c3cn[nH]c3)ccc2cn1 [Example 57, 2-{[(1R,2S,5R)-2-isopropyl-5-methylcyclohexyl]oxy}-N-[6-(1H-pyrazol-4-yl)isoquinolin-3-yl]acetamide]	4
CNC(=O)c1ccc2cnc(N[C@H]3CC[C@H](O)CC3)nc2c1 [Example 58, 2-[(trans-4-hydroxycyclohexyl)amino]-N-methylquinazoline-7-carboxamide]	261
CN(C)C(=O)c1ccc2cnc(N[C@H]3CC[C@H](O)CC3)nc2c1 [Example 59, 2-[(trans-4-hydroxycyclohexyl)amino]-N,N-dimethylquinazoline-7-carboxamide]	4340
O=C(NC1CCS(=O)(=O)C1)c1ccc2cnc(N[C@H]3CC[C@H](O)CC3)nc2c1 (stereo partly drawn) [Example 60, N-(1,1-dioxidotetrahydro-3-thienyl)-2-[(trans-4-hydroxycyclohexyl)amino]quinazoline-7-carboxamide]	157
O=C(NCCN1CCOCC1)c1ccc2cnc(N[C@H]3CC[C@H](O)CC3)nc2c1 [Example 61, 2-[(trans-4-hydroxycyclohexyl)amino]-N-(2-morpholin-4-ylethyl)quinazoline-7-carboxamide]	525
O=C(NCc1ccccc1)c1ccc2cnc(N[C@H]3CC[C@H](O)CC3)nc2c1 [Example 62, N-benzyl-2-[(trans-4-hydroxycyclohexyl)amino]quinazoline-7-carboxamide]	432
O=C(NCCc1ccccc1)c1ccc2cnc(N[C@H]3CC[C@H](O)CC3)nc2c1 [Example 63, 2-[(trans-4-hydroxycyclohexyl)amino]-N-(2-phenylethyl)quinazoline-7-carboxamide]	460
